According to PubChem BioAssay AID1919009 (Molecular Pharmacology Branch, DTP, NCI, 2023):

System: K24384-001-R-PDC complex spheroid growth
Experiment: Anticancer human tumor K24384-001-R-PDC patient-derived pancreatic adenocarcinoma cell line growth inhibition [AhR]
Settings: for IC50: curve of first compound; for viability, T/C: stronger effect = lower value
Method in brief: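 Agents were dosed in half-log steps down from roughly clinical Cmax, or from 10 microM where Cmax was unknown, alone and with AhR antagonists. Read-out: percent test/control growth of tumor spheroids containing HUVEC and MSC stromal cells.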
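Throughout, for viability, T/C: percent of DMSO vehicle-treated spheroid viability set as 100%.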

With `CC1(C)CCC(CN2CCN(c3ccc(C(=O)NS(=O)(=O)c4ccc(NCC5CCOCC5)c([N+](=O)[O-])c4)c(Oc4cnc5[nH]ccc5c4)c3)CC2)=C(c2ccc(Cl)cc2)C1` + Cc1cncc(-c2nc(NCCc3c[nH]c4ccccc34)c3ncn(C(C)C)c3n2)c1 the IC50 (second compound 0.1 µM) was 6.2 µM, the IC50 (second compound 0.316 µM) was 5.76 µM and the IC50 (second compound 1 µM) was 7.2 µM. For the same compound, the IC50 (second compound 3.16 µM) was 7.67 µM, the IC50 (second compound 10 µM) was less than 0.0316 µM and the viability, T/C (second compound 0.1 µM, first compound 0.0316 µM) was 137%. The viability, T/C (second compound 0.1 µM, first compound 0.1 µM) was 128%, the viability, T/C (second compound 0.1 µM, first compound 0.316 µM) was 129% and the viability, T/C (second compound 0.1 µM, first compound 1 µM) was 86.7%. For the same compound, the viability, T/C (second compound 0.1 µM, first compound 3.16 µM) was 101%, the viability, T/C (second compound 0.1 µM, first compound 10 µM) was 22% and the viability, T/C (second compound 0.316 µM, first compound 0.0316 µM) was 134%. For the same compound, the viability, T/C (second compound 0.316 µM, first compound 0.1 µM) was 140%, the viability, T/C (second compound 0.316 µM, first compound 0.316 µM) was 126% and the viability, T/C (second compound 0.316 µM, first compound 1 µM) was 95.5%. The viability, T/C (second compound 0.316 µM, first compound 3.16 µM) was 92.7%, the viability, T/C (second compound 0.316 µM, first compound 10 µM) was 18.6% and the viability, T/C (second compound 1 µM, first compound 0.0316 µM) was 117%. It also gave a viability, T/C (second compound 1 µM, first compound 0.1 µM) of 157%, a viability, T/C (second compound 1 µM, first compound 0.316 µM) of 137% and a viability, T/C (second compound 1 µM, first compound 1 µM) of 122%. For the same compound, the viability, T/C (second compound 1 µM, first compound 3.16 µM) was 119%, the viability, T/C (second compound 1 µM, first compound 10 µM) was 23.1% and the viability, T/C (second compound 3.16 µM, first compound 0.0316 µM) was 116%. For the same compound, the viability, T/C (second compound 3.16 µM, first compound 0.1 µM) was 148%, the viability, T/C (second compound 3.16 µM, first compound 0.316 µM) was 138% and the viability, T/C (second compound 3.16 µM, first compound 1 µM) was 119%. For the same compound, the viability, T/C (second compound 3.16 µM, first compound 3.16 µM) was 124%, the viability, T/C (second compound 3.16 µM, first compound 10 µM) was 27.5% and the viability, T/C (second compound 10 µM, first compound 0.0316 µM) was 20.5%. The viability, T/C (second compound 10 µM, first compound 0.1 µM) was 21%, the viability, T/C (second compound 10 µM, first compound 0.316 µM) was 16.6% and the viability, T/C (second compound 10 µM, first compound 1 µM) was 19.1%. It also gave a viability, T/C (second compound 10 µM, first compound 3.16 µM) of 19.9% and a viability, T/C (second compound 10 µM, first compound 10 µM) of 25%.
In the case of `CCN(c1cc(-c2ccc(CN3CCOCC3)cc2)cc(C(=O)NCc2c(C)cc(C)[nH]c2=O)c1C)C1CCOCC1` + Cc1cncc(-c2nc(NCCc3c[nH]c4ccccc34)c3ncn(C(C)C)c3n2)c1, the IC50 (second compound 0.1 µM) is reported as greater than 3 µM, the IC50 (second compound 0.316 µM) is reported as greater than 3 µM and the IC50 (second compound 1 µM) is reported as greater than 3 µM. It also gave an IC50 (second compound 3.16 µM) greater than 3 µM, an IC50 (second compound 10 µM) of less than 0.00949 µM and a viability, T/C (second compound 0.1 µM, first compound 0.00949 µM) of 118%. For the same compound, the viability, T/C (second compound 0.1 µM, first compound 0.03 µM) was 126%, the viability, T/C (second compound 0.1 µM, first compound 0.0949 µM) was 129% and the viability, T/C (second compound 0.1 µM, first compound 0.3 µM) was 115%. For the same compound, the viability, T/C (second compound 0.1 µM, first compound 0.949 µM) was 130%, the viability, T/C (second compound 0.1 µM, first compound 3 µM) was 133% and the viability, T/C (second compound 0.316 µM, first compound 0.00949 µM) was 138%. For the same compound, the viability, T/C (second compound 0.316 µM, first compound 0.03 µM) was 139%, the viability, T/C (second compound 0.316 µM, first compound 0.0949 µM) was 150% and the viability, T/C (second compound 0.316 µM, first compound 0.3 µM) was 132%. For the same compound, the viability, T/C (second compound 0.316 µM, first compound 0.949 µM) was 120%, the viability, T/C (second compound 0.316 µM, first compound 3 µM) was 108% and the viability, T/C (second compound 1 µM, first compound 0.00949 µM) was 126%. It also gave a viability, T/C (second compound 1 µM, first compound 0.03 µM) of 150%, a viability, T/C (second compound 1 µM, first compound 0.0949 µM) of 144% and a viability, T/C (second compound 1 µM, first compound 0.3 µM) of 133%. It also gave a viability, T/C (second compound 1 µM, first compound 0.949 µM) of 128%, a viability, T/C (second compound 1 µM, first compound 3 µM) of 120% and a viability, T/C (second compound 3.16 µM, first compound 0.00949 µM) of 116%. For the same compound, the viability, T/C (second compound 3.16 µM, first compound 0.03 µM) was 101%, the viability, T/C (second compound 3.16 µM, first compound 0.0949 µM) was 120% and the viability, T/C (second compound 3.16 µM, first compound 0.3 µM) was 113%. The viability, T/C (second compound 3.16 µM, first compound 0.949 µM) was 101%, the viability, T/C (second compound 3.16 µM, first compound 3 µM) was 96.1% and the viability, T/C (second compound 10 µM, first compound 0.00949 µM) was 18.7%. The viability, T/C (second compound 10 µM, first compound 0.03 µM) was 17.1%, the viability, T/C (second compound 10 µM, first compound 0.0949 µM) was 17.3% and the viability, T/C (second compound 10 µM, first compound 0.3 µM) was 11.9%. The viability, T/C (second compound 10 µM, first compound 0.949 µM) was 10.1% and the viability, T/C (second compound 10 µM, first compound 3 µM) was 8.09%.
